Source: patent publication US20020147137A1, “Medical use of alpha1-acid glycoprotein (AAG) or orosomucoid” (Hamosan Erzeugung Pharmazeutischer Grundstoffe Gesellschaft …, priority 1999, published 2002)

Experiments:
[1] = Withdrawal by means of plasma exchange (comparative): methadone, methadone metabolites and thebaine measured in urine; details: for Substance measured in urine: before 1. PE / before therapy; for concentration at 1 day / concentration at 2 day / concentration at 3 day / concentration at 4 day / concentration at 5 day / concentration at 6 day / concentration at 7 day / concentration at 17 day / concentration at 24 day / concentration at 31 day: human, in vivo
From the text: In the withdrawal therapy of a methadone addict, one of the inventors has practised the method of plasma exchange (PE) for assisting and accelerating the removal of methadone from the body, i.e., blood was taken from the patient, the cellular components were separated and re-infused into the body, and instead of the patient's own plasma portion, the plasma of a donor was supplied.
The patient was 2 x connected to the plasmapheresis (1st and 3rd day). […] Besides, the coagulation parameters were measured because of the hypercoagulability.

[2] = tested on: isolated perfused rat livers; details: protein added to perfusate; cited from earlier work
[3] = tested on: patient in methadone withdrawal; experiment: Methadone withdrawal by administration of α1-acid glycoprotein: clinical course; assay type: in vivo, human (patient)
Method: The patient's circulation is stable, the patient is co-operative, a venous cannula and a peripheral venous catheter on the left side are set. Immediately after admission, beginning of sedation with Dormicum 0.4 mg/kg/d, Clonidin 0.02 mg/kg/d. Dormicum bolus administration at admission.
Volume substitution with Elohaest, human albumin and electrolyte solution.
From 4:05 p.m. to 4:15 p.m., renewed hemodilution: 400 ml of own blood was drawn.
Urinating is without any problems and spontaneous.
The patient's only problems are nicotine withdrawal.
Therapy with Clonidin and Dormicum is changed to oral (4×0.075 mg Catapresan and 4×7.5 mg Dormicum per os) with sufficient magnesium substitution in addition. Subjectively, the patient feels well and is free from any discomfort.
Removal of the peripheral venous catheter, continuation of the oral therapy, the patient is moved to the LNKH while being in a good general state and subjectively feeling well.

CCC(=O)C(CC(C)N(C)C)(c1ccccc1)c1ccccc1 (racemic) [methadone, reference compound]
Substance measured in urine [1]: 15 µg/mL | concentration at 1 day [1]: 3000 ng/mL | concentration at 2 day [1]: 1900 ng/mL | concentration at 3 day [1]: 500 ng/mL | concentration at 4 day [1]: 500 ng/mL | concentration at 5 day [1]: 400 ng/mL | concentration at 6 day [1]: 300 ng/mL | concentration at 7 day [1]: 500 ng/mL | concentration at 17 day [1]: 0 ng/mL | concentration at 24 day [1]: 0 ng/mL | concentration at 31 day [1]: 0 ng/mL

COC1=CC=C2[C@H]3Cc4ccc(OC)c5c4[C@@]2(CCN3C)[C@H]1O5 [thebaine]
Substance measured in urine [1]: 7 µg/mL | concentration at 1 day [1]: 0 ng/mL | concentration at 2 day [1]: 0 ng/mL | concentration at 3 day [1]: 0 ng/mL | concentration at 4 day [1]: 0 ng/mL | concentration at 5 day [1]: 0 ng/mL | concentration at 6 day [1]: 0 ng/mL | concentration at 7 day [1]: 0 ng/mL | concentration at 17 day [1]: 0 ng/mL | concentration at 24 day [1]: 0 ng/mL | concentration at 31 day [1]: 0 ng/mL

α1-acid glycoprotein
influence on elimination of drugs capable of being bound [2]: slowed down | influence on elimination of nonbinding drugs [2]: no influence | tolerability after first administration ([3]; 3 grams in 500 ml of infusion solution at 10 a.m.): first symptoms with slight sweating, otherwise no problems so far | acute reaction after second administration ([3]; 6 grams in merely 150 ml of infusion solution at 4:30 p.m.): symptoms of an acute reaction, similar to an allergy | physical withdrawal symptoms ([3]; 9/20/97, day after AAG administration): no physical withdrawal symptoms | physical withdrawal symptoms ([3]; 9/21/97, second day after AAG administration): no particular physical withdrawal symptoms | withdrawal symptoms after AAG administration ([3]; after the short crisis following the 2nd partial amount): intensive recovery phase without any withdrawal symptoms | total time until treatment could be terminated ([3]; methadone withdrawal with AAG, 2nd patient): three
